The subject of test [1] is 95 Lla (RNA, riboswitch) GGGAAAAUAGAAUAAAUACUCCACCGGGAGUUAAAUCGUAUGAACGAUUGUUUGCAUUUCAGUAGGUCUGAGAAGAAAUGUAGAUAGUCGUUCUU
Put plainly: in-line probing. As to conditions: 20 mM Mg2+, 100 mM K+, 50 mM Tris-HCl pH 8.3 (at 23 °C); for binding: highest tested 10 mM; for apparent KD: ~48 h.

Test [2] relates to 147 Lla (RNA, riboswitch) AAAAUAGAAUAAAUACUCCACCGGGAGUUAAAUCGUAUGAACGAUUGUUUGCAUUUCAGUAGGUCUGAGAAGAAAUGUAGAUAGUCGUUCUUUUUUUAGCUGAGGAGGCGAAAAUGACUUGGCUAUAUCUACUAAUAGCAGGAAUUU
Briefly: in vitro transcription termination assay. As to conditions: 1.8 mM NTPs, 37 °C; for binding: highest tested 10 mM; for EC50: E. coli RNA polymerase, 8 min, co-transcriptional, full-length fraction.

The test system of test [3] is 92 Rti (RNA, riboswitch) GGGACAAUUGAAGCAUCUGCCGCCGGGUAGACCAAGAACAAAGCAUGUGCGCCCCUAUCGUUAGGCCAUAGAAGAUAGGGGAAAGCGCAUGC
Briefly: in-line probing. As to conditions: 20 mM Mg2+, 100 mM K+, 50 mM Tris-HCl pH 8.3 (at 23 °C), ~48 h.

The subject of test [4] is 95 Lla M1 (G66C) (RNA, riboswitch) GGGAAAAUAGAAUAAAUACUCCACCGGGAGUUAAAUCGUAUGAACGAUUGUUUGCAUUUCAGUAGCUCUGAGAAGAAAUGUAGAUAGUCGUUCUU
Put plainly: in-line probing. As to conditions: 20 mM Mg2+, 100 mM K+; 50 mM Tris-HCl pH 8.3 (at 23 °C); highest tested 10 mM.

Test [5] relates to 95 Lla M2 (U67A) (RNA, riboswitch) GGGAAAAUAGAAUAAAUACUCCACCGGGAGUUAAAUCGUAUGAACGAUUGUUUGCAUUUCAGUAGGACUGAGAAGAAAUGUAGAUAGUCGUUCUU
Briefly: in-line probing. As to conditions: 20 mM Mg2+, 100 mM K+; 50 mM Tris-HCl pH 8.3 (at 23 °C); highest tested 10 mM.

In test [6] the test system is 95 Lla M3 (G72C) (RNA, riboswitch) GGGAAAAUAGAAUAAAUACUCCACCGGGAGUUAAAUCGUAUGAACGAUUGUUUGCAUUUCAGUAGGUCUGACAAGAAAUGUAGAUAGUCGUUCUU
Put plainly: in-line probing. As to conditions: 20 mM Mg2+, 100 mM K+; 50 mM Tris-HCl pH 8.3 (at 23 °C); highest tested 10 mM.

In test [7] the test system is 95 Lla M4 (G62C) (RNA, riboswitch) GGGAAAAUAGAAUAAAUACUCCACCGGGAGUUAAAUCGUAUGAACGAUUGUUUGCAUUUCACUAGGUCUGAGAAGAAAUGUAGAUAGUCGUUCUU
Briefly: in-line probing. As to conditions: 20 mM Mg2+, 100 mM K+; 50 mM Tris-HCl pH 8.3 (at 23 °C); up to 10 mM; folding differs from wt.

Test [8] deals with GGAM-2 (Cfi 63) (RNA, mRNA element) GGAAUGGUACGGUCGUACCAGAACCGUGCGCGGGACGGCGGACCUGACACCCGGCGCGCAGCG
Briefly: in-line probing and in vitro transcription. As to conditions: 20 mM Mg2+, 100 mM K+; initial experiments, data not shown; highest concentration not stated.

For test [9], the system named is GGAM-2 (Cfi 80) (RNA, mRNA element) GGUCGCAGGAAUGGUACGGUCGUACCAGAACCGUGCGCGGGACGGCGGACCUGACACCCGGCGCGCAGCGGUCGCCCACC
Put plainly: in-line probing and in vitro transcription. As to conditions: 20 mM Mg2+, 100 mM K+; initial experiments, data not shown; highest concentration not stated.

The subject of test [10] is GGAM-3 (Bub 73) (RNA, mRNA element) GGGAUCCAUCCGGGGUACCGCUCCCGCAAGUUGAUCGCGCUCGGUACAAGCGCGAAAUCAGGAGCGGUACGCC
Put plainly: in-line probing and in vitro transcription. As to conditions: 20 mM Mg2+, 100 mM K+; initial experiments, data not shown; highest concentration not stated.

Test [11] has as its system GGAM-3 (Bub 59) (RNA, mRNA element) GGGAUCCAUCCGGGGUACCGCUCCCGCAAGUUGAUCGCGCUCGGUACAAGCGCGAAAUC
Briefly: in-line probing and in vitro transcription. As to conditions: 20 mM Mg2+, 100 mM K+; initial experiments, data not shown; highest concentration not stated.

The test system of test [12] is GGAM-4 (Msu 80) (RNA, mRNA element) GGGAAACUAAGGUCCGCCCGCUAGGCCGGCCGCGCCUCGACGCGCCGGCUCUCGUCAAUCGAACACGCGCGGUACCCAUG
Briefly: in-line probing and in vitro transcription. As to conditions: 20 mM Mg2+, 100 mM K+; initial experiments, data not shown; highest concentration not stated.

Test [13] concerns GGAM-4 (Msu 98) (RNA, mRNA element) GGGCGACAGCCUCUCCUCGCGAAACUAAGGUCCGCCCGCUAGGCCGGCCGCGCCUCGACGCGCCGGCUCUCGUCAAUCGAACACGCGCGGUACCCAUG
Put plainly: in-line probing and in vitro transcription. As to conditions: 20 mM Mg2+, 100 mM K+; initial experiments, data not shown; highest concentration not stated.

Test [14] has as its system GGAM-5 (Nov 77) (RNA, mRNA element) GGGUGGAUGCGCCGAGAAUAGAGUAGCAGGGUGGUGUCUCCUGCGCCCGUAAGGGUUCUUCCCAGCCACGGCGUCAA
Briefly: in-line probing and in vitro transcription. As to conditions: 20 mM Mg2+, 100 mM K+; initial experiments, data not shown; highest concentration not stated.

Test [15] deals with GGAM-6 (Sru 111) (RNA, mRNA element) GGGUCAAUACUCGUAUCGGACGGCAAGCAAUCGCCUGCUUGCCAGAUAAGGUGUCCAUAGACACUGGAACGGGUUAUUCAGGCCAGAUAAGAUCGCAUUCUUAUCUGGCCU
Briefly: in-line probing and in vitro transcription. As to conditions: 20 mM Mg2+, 100 mM K+; initial experiments, data not shown; highest concentration not stated.

For `N=C(N)NCCC[C@H](N)C(=O)O`, the binding result in test [1] and in test [2] was “no” in each case.
Usually apparent KD stands for the concentration giving half-maximal binding under the conditions of the assay. By EC50 is commonly meant the concentration that produces a half-maximal response. With `N=C(N)N`, the “apparent KD” value in test [1] was determined as 210 ± 20 µM; in test [3] it was 190 ± 30 µM. In addition, the binding entry in test [4] is recorded as “no”; in [5] it was “no”; in test [6], “no”; in [7], “weak”; in test [8] it was “no”; in test [9], “no”. For the same compound, the binding result in test [10], in test [11], in test [12], in test [13], in test [14] and in [15] was “no” each time. The concentration for a half-maximal effect (EC50) in test [2] came to 260 ± 30 µM.
As for `N=C(N)NN`, the “apparent KD” value in test [1] was 7500 ± 800 µM. The same compound gave an EC50 in test [2] of 3800 ± 500 µM.
Turning to `CNC(=N)N`, in [1] (Figure 5 legend prints ±0.6), the “apparent KD” value came to 4100 ± 500 µM. This compound showed an EC50 in test [2] of 2700 ± 700 µM.
As to `NC(N)=O`, the binding result in [1] and in test [2] was “no” each time.

Values taken from paper PMC7736828 (2020).
